Like-named read-outs stand apart in the source and are kept apart here.

Experimental findings from PMC8333062, “Chemical tools for epichaperome-mediated interactome dysfunctions of the central nervous system” (Nature Communications, 2021) are described below.

Data set [1] deals with HSP90 pools in JNPL3 (AD transgenic) mouse brain lysate. As to the kind of experiment: Fluorescence polarization (FP) competitive binding, cy3B-GM. The conditions noted are these: read-out: FP relative affinity. (In general: Fluorescence polarisation rises when a labelled molecule tumbles more slowly, as on binding a larger partner.)
For data set [2] the following is noted: for PAMPA_BBB: PAMPA; for PAMPA-BBB: pH 7.4.
Data set [3] is described as follows: PAMPA-BBB permeability. The conditions noted are these: for PAMPA_BBB: Supplementary Table 6; for Papp at 16 h, 50 μM: pig, PAMPA, pH 7.4. (In general: In PAMPA a lipid-coated filter parts donor from acceptor wells.)
Data set [4] can be described thus: in vitro. The conditions noted are these: PAMPA, pH 7.4.
The mark [5] stands for this setting: displacement of cy3B-GM, 24 h, 4 °C, mean±SD, n=3.

Take `CC(C)NCCCn1c(Sc2cc3c(cc2Br)OCO3)nc2c(N)ncnc21` [Compound 3]: the EC50 in data set [1] (setting [5]) stood at 122 ± 7 nM.
On the same count and under the same terms, as for `CC(C)NCCCn1c(Sc2cc3c(cc2C#N)OCO3)nc2c(N)ncnc21` [Compound 5], the figure is 285 ± 13 nM; as for `CC(=O)c1cc2c(cc1Sc1nc3c(N)ncnc3n1CCCNC(C)C)OCO2` [Compound 6], 103 ± 7 nM.
In the case of `C=Cc1cc2c(cc1Sc1nc3c(N)ncnc3n1CCCNC(C)C)OCO2` [Compound 7], the EC50 in data set [1] (setting [5]) stood at 213 ± 7 nM. In data set [2], the PAMPA_BBB was 6.1±0.1 and the PAMPA-BBB is recorded as 6.1±0.1 10-6 cms-1.
Taken in the same sequence, the figures for `C=CCc1cc2c(cc1Sc1nc3c(N)ncnc3n1CCCNC(C)C)OCO2` [Compound 8] were 122 ± 4 nM, 6.7±0.7 and 6.7±0.7 10-6 cms-1.
`CC(C)NCCCn1c(Sc2cc3c(cc2-c2ccccc2)OCO3)nc2c(N)ncnc21` [Compound 9]: in data set [1] (setting [5]), the EC50 worked out at 270 ± 10 nM. For the same molecule, in data set [2], the PAMPA_BBB came to 9.9±0.5 and the PAMPA-BBB is reported as 9.9±0.5 10-6 cms-1.
As usually defined, the Papp is a coefficient for how fast a substance crosses the barrier. Lower therefore signals slow passage. In data set [3], `CC(C)NCCCn1c(Sc2cc3c(cc2-c2ccc(Br)cc2)OCO3)nc2c(N)ncnc21` [Compound 10] yielded a PAMPA_BBB of 11.5±0.4. Further, the EC50 in data set [1] (setting [5]) is 732 ± 13 nM. This molecule also displayed a Papp at 16 h, 50 μM in data set [4] of 11.5 ± 0.4 ×10⁻⁶ cm/s.
In the case of `CC(C)NCCCn1c(Sc2cc3c(cc2-c2ccc(C(C)(C)C)cc2)OCO3)nc2c(N)ncnc21` [Compound 11], the EC50 in data set [1] (setting [5]) was 2600 nM. For the same molecule, in data set [2], the PAMPA_BBB is listed as 12.5±0.6 and the PAMPA-BBB is listed as 12.5±0.6 10-6 cms-1.
On to `CC(C)NCCCn1c(Sc2cc3c(cc2-c2ccc(N(C)C)cc2)OCO3)nc2c(N)ncnc21` [Compound 12], for which the EC50 in data set [1] (setting [5]) worked out at 1390 nM. Moreover, in data set [2], the PAMPA_BBB was found to be 9.2±0.3 and the PAMPA-BBB is reported as 9.2±0.3 10-6 cms-1.
In the case of `CC(C)NCCCn1c(Cc2cc(I)c3c(c2)OCO3)nc2c(N)nc(F)nc21` [Compound 17], in data set [1] (setting [5]), the EC50 worked out at 85 ± 10 nM.
Still for that read-out and setting: as for `CC(C)NCCCn1c(Cc2cc(Br)c3c(c2)OCO3)nc2c(N)nc(F)nc21` [Compound 18], the figure is 191 ± 6 nM; as for `CC(C)NCCCn1c(Cc2cc3c(cc2C#N)OCO3)nc2c(N)nc(F)nc21` [Compound 20], 219 ± 19 nM.
On to `CCc1cc2c(cc1Cc1nc3c(N)nc(F)nc3n1CCCNC(C)C)OCO2` [Compound 21], for which, in data set [3], the PAMPA_BBB stood at 5.9±0.6. Also, the EC50 in data set [1] (setting [5]) stood at 813 ± 56 nM. In data set [4], this molecule registered a Papp at 16 h, 50 μM of 5.9 ± 0.6 ×10⁻⁶ cm/s.
The matching figures for `C=Cc1cc2c(cc1Cc1nc3c(N)nc(F)nc3n1CCCNC(C)C)OCO2` [Compound 22]: 5.6±0.2, 146 ± 9 nM and 5.6 ± 0.2 ×10⁻⁶ cm/s.
Taken in the same sequence, the figures for `C=CCc1cc2c(cc1Cc1nc3c(N)nc(F)nc3n1CCCNC(C)C)OCO2` [Compound 23] were 4.6±0.6, greater than 5000 nM and 4.6 ± 0.6 ×10⁻⁶ cm/s.
In data set [3], `CC(C)NCCCn1c(Sc2cc3c(cc2I)OCCO3)nc2c(N)ncnc21` [Compound 28] gave a PAMPA_BBB of 6.6±0.6. Moreover, the EC50 in data set [1] (setting [5]) was determined as 34.5 ± 1.7 nM. Also, the Papp at 16 h, 50 μM in data set [4] is 6.6 ± 0.6 ×10⁻⁶ cm/s.
As to `CC(C)NCCCn1c(Sc2cc3c(cc2I)OCCCO3)nc2c(N)ncnc21` [Compound 35], the EC50 in data set [1] (setting [5]) came to 232 ± 10 nM.
Regarding `Nc1ncnc2c1nc(Sc1cc3c(cc1I)OCC3)n2CCCBr` [Compound 40], the PAMPA_BBB in data set [3] was found to be 7.7±0.8. Besides, the EC50 in data set [1] (setting [5]) came to 8 ± 0.4 nM. For the same molecule, the apparent permeability coefficient (Papp) at 16 h, 50 μM in data set [4] worked out at 7.7 ± 0.8 ×10⁻⁶ cm/s.
In data set [3], `CC(C)NCCCn1c(Sc2cc3c(cc2I)CCC3)nc2c(N)ncnc21` [Compound 53] gave a PAMPA_BBB of 15.1±0.7 and a Papp at 16 h, 50 μM of 15.1 ×10⁻⁶ cm/s. In addition, in data set [1] (setting [5]), the EC50 was determined as 4.5 ± 0.5 nM.
Regarding `CC(C)NCCCn1c(Sc2cc3ccccc3cc2I)nc2c(N)ncnc21` [Compound 58], the EC50 in data set [1] (setting [5]) was 97 ± 3 nM. In data set [2], the PAMPA_BBB is given as 10.8±0.2 and the PAMPA-BBB is 10.8±0.2 10-6 cms-1.
For `CC(C)(C)NCCCn1c(Cc2cc3c(cc2I)OCO3)nc2c(N)nc(F)nc21` [Compound 59], in data set [3], the PAMPA_BBB worked out at 13.3±1.4 and the Papp at 16 h, 50 μM turned out to be 13.3 ×10⁻⁶ cm/s. In addition, the EC50 in data set [1] (setting [5]) was 12.7 ± 1.6 nM.
`CC(C)N(C)CCCn1c(Cc2cc3c(cc2I)OCO3)nc2c(N)nc(F)nc21` [Compound 60]: the EC50 in data set [1] (setting [5]) worked out at 39 ± 2 nM. Also, in data set [2], the PAMPA_BBB is listed as 5.8±1.3 and the PAMPA-BBB is 5.8±1.3 10-6 cms-1.
The matching figures for `CCN(CCCn1c(Cc2cc3c(cc2I)OCO3)nc2c(N)nc(F)nc21)C(C)C` [Compound 61]: 30 ± 13 nM, 7.5±0.2 and 7.5±0.2 10-6 cms-1.
As to `CCN(C)CCCn1c(Cc2cc3c(cc2I)OCO3)nc2c(N)nc(F)nc21` [Compound 62], the EC50 in data set [1] (setting [5]) amounted to 45 ± 19 nM. In data set [2], the PAMPA_BBB was found to be 7.5±0.1 and the PAMPA-BBB is 7.5±0.1 10-6 cms-1.
For `CCCN(CCCn1c(Cc2cc3c(cc2I)OCO3)nc2c(N)nc(F)nc21)CC1CC1` [Compound 63], the EC50 in data set [1] (setting [5]) worked out at 43 ± 4 nM. In addition, in data set [2], the PAMPA_BBB turned out to be 8.4±2.1 and the PAMPA-BBB was 8.4±2.1 10-6 cms-1.
As to `C#CCN(C)CCCn1c(Cc2cc3c(cc2I)OCO3)nc2c(N)nc(F)nc21` [Compound 64], in data set [3], the PAMPA_BBB was found to be 11.1±0.1 and the apparent permeability coefficient (Papp) at 16 h, 50 μM came to 11.1 ×10⁻⁶ cm/s. In data set [1] (setting [5]), the EC50 was 30 ± 6 nM.
As to `C=CCN(C)CCCn1c(Cc2cc3c(cc2I)OCO3)nc2c(N)nc(F)nc21` [Compound 65], the EC50 in data set [1] (setting [5]) was 44 ± 4 nM. In addition, in data set [2], the PAMPA_BBB is 11.3±1.9 and the PAMPA-BBB is 11.3±1.9 10-6 cms-1.
On to `CC1CN1CCCn1c(Cc2cc3c(cc2I)OCO3)nc2c(N)nc(F)nc21` (stereo not drawn) [Compound 66], for which the EC50 in data set [1] was 105 ± 5 nM. Further, in data set [2], the PAMPA_BBB stood at 5.8±1.5 and the PAMPA-BBB was 5.8±1.5 10-6 cms-1.
For `Nc1nc(F)nc2c1nc(Cc1cc3c(cc1I)OCO3)n2CCCN1CCOCC1` [Compound 68], the EC50 in data set [1] came out at 202 ± 7 nM. Further, in data set [2], the PAMPA_BBB was determined as 6.3±1.1 and the PAMPA-BBB is on record as 6.3±1.1 10-6 cms-1.
As for `CC(C)N(CCO)CCCn1c(Cc2cc3c(cc2I)OCO3)nc2c(N)nc(F)nc21` [Compound 69], the EC50 in data set [1] came to 61 ± 2 nM. Also, in data set [2], the PAMPA_BBB stood at 1.1±0.1 and the PAMPA-BBB is on record as 1.1±0.1 10-6 cms-1.
Turning to `Nc1nc(F)nc2c1nc(Cc1cc3c(cc1I)OCO3)n2CCCN(CCO)C1CCCCC1` [Compound 70], in data set [1] (setting [5]), the EC50 was 24 ± 2 nM. For the same molecule, in data set [2], the PAMPA_BBB is reported as 8.5±0.1 and the PAMPA-BBB is on record as 8.5±0.1 10-6 cms-1.
`Nc1nc(F)nc2c1nc(Cc1cc3c(cc1I)OCO3)n2CCCN1CCN(CCO)CC1` [Compound 71]: in data set [1], the EC50 was 200 ± 5 nM. For the same molecule, in data set [2], the PAMPA_BBB was 4.7±0.5 and the PAMPA-BBB was 4.7±0.5 10-6 cms-1.
Consider `C[N+](C)(C)CCCn1c(Cc2cc3c(cc2I)OCO3)nc2c(N)nc(F)nc21` [Compound 72], for which, in data set [3], the PAMPA_BBB stood at 1.3±0.1. Moreover, the EC50 in data set [1] (setting [5]) came to 155 ± 5 nM.
As to `CC(C)CNCCn1c(Sc2cc3c(cc2I)OCO3)nc2c(N)ncnc21` [Compound 84], the EC50 in data set [1] (setting [5]) is 14 ± 2 nM. For the same molecule, in data set [2], the PAMPA_BBB amounted to 8.9±0.5 and the PAMPA-BBB is listed as 8.9±0.5 10-6 cms-1.
Taken in the same sequence, the figures for `CC(C)CNCCn1c(Sc2cc3c(cc2I)CCO3)nc2c(N)ncnc21` [Compound 86] were 5.5 ± 0.6 nM, 9.3±0.2 and 9.3±0.2 10-6 cms-1.
